Test results as given in patent publication US20160281089A1, “PREVENTION OF VIRAL INFECTIVITY” (priority 2005, published 2016).

Experiments:
[1] = tested on: HIV virions; test: Infectivity of ODN-pre-incubated HIV virions in C81-66/45 cells; type: cell-based
Experimental: As a next step we investigated the antiviral effect of ODNs by testing the infectivity of treated virions in cell culture studies. We used ODN A, ODN T, as PPT and ODN CO. 2×10^5 C81-66/45 cells were infected with virions pre-incubated with different ODNs at 0.01 MOI for 1, 2 or 4 hours prior to infection. RNA was extracted from infected cells and HIV replication was analysed by real-time PCR 3 days post-infection.
To test the specificity of suppression of viral replication, the effect of ODN A on the infectivity of virions was compared with control ODNs. Virions were pre-treated with the ODNs and HIV replication in infected cells was analysed by real-time PCR, 5 days (FIG. 6A) or 20 days post-infection (FIG. 6B) and by measuring p24 production in the supernatant of the infected cells (FIG. 6C).
(A) HIV virions were incubated with 0.5 μM of ODNs for 1, 2 or 4 hours. C81-66/45 cells were infected with pre-incubated virions, at 0.01 MOI. RNA was extracted from infected cells and HIV replication was analysed by real-time PCR, 3 days post-infection (p.i.).
(B) The same experiment as in (A) was performed with ODN T, ODN CO, asPPT and ODN A pre-treated virions.
(D) C81-66145 cells were infected with virions pre-incubated with 0.5 or 5 μM of ODNs for 4 h, at an MOI of 1. RNA was extracted from infected cells and HIV replication was analysed by real-time PCR, 3 days post-infection.
(E) C81-66/45 cells were infected with virions pre-incubated with ODN A and ODN Sc for 4 h, at an MOI of 0.01. RNA was extracted from infected cells and HIV replication was analysed by real-time PCR, 1 h and 24 h post-infection. (F) The same experiment as in (E) was performed except for using ODN T, ODN B and ODN A, 1 hour post-infection.
C81-66/45 cells were infected with virions pre-incubated with ODN A, ODN T, ODN CO or as PPT for 4 h, at MOI of 0.01. RNA was extracted from infected cells and HIV replication was analysed by real-time PCR, 5 days p.i. (A), and 20 days p.i. (B); by measuring p24 production in the medium of the infected cells (C) or by RT-PCR, 11 days p.i. (D).

[2] = tested on: SFFV; test: Early i.v. therapy 2, 6 and 10 hours after SFFV infection of mice; type: in vivo; settings: i.v. treatment 2, 6 and 10 hours after infection; for establishment of SFFV infection (PCR of blood samples): whole period tested
Experimental: In another experimental setting we assessed the effect of an i.v. therapy early after infection. We infected mice with SFFV and treated them 2, 6, and 10 hours later with ODN M, asPPT or PBS.
c. Mice infected with SFFV (4×10^2 FFU) i.v. received triple-treatments with ODNs at 2, 6 and 10 hours post-infection. Real-time RT-PCR analysis (graph) and RT-PCR (gel analysis) was performed with RNA from plasma beginning at day 5 and at the days indicated.

[3] = tested on: FUGW virus; test: Intravaginal treatment of FUGW virus with ODN A, lavage, real-time PCR; type: in vivo, C57BL/6 mice; settings: 25 μM ODN, 4 h in the vagina
Source text: In order to analyse the efficiency of the ODN A in the vagina, we used a recombinant retrovirus vector (FUGW) and placed the virus with and without ODN A into the vagina. We recover the virus by lavage and tested the RNA copies by real-time PCR. […] Two different virus concentration were used. The effect can be approved due by adaptation to mucosal condition of the vagina.
The FUGW virus was used, which is a recombinant retrovirus on the basis of HIV but with safety properties. It contains a PPT identical to HIV. The virus was prepared as described (Lois C., Hong E. J., Pease S., Brown E. J. and Baltimore D. (2002). “Germline Transmission and Tissue-Specific Expression of Transgenes Delivered by Lentiviral Vectors”, Science 295, 868-872).
The incubation was followed by a lavage of the vagina. Then lavage samples from the vagina were collected for RNA extraction using QIAamp viral RNA kit. RNA were eluted in 30 μl elution buffer. For reverse transcription, 2 μl RNA were used in 12.5 μl volume and 3 μl of the cDNA were used for real time PCR. Virus reduction is dependent on the ratio of ODN A to virus titer and the reduction is 2 fold for 10^4 IU.

[4] = target: T1, RT/RNaseH (Human immunodeficiency virus type 1 group M subtype B, UniProt P04585); settings: high concentrations; previously shown (ref. 12); cited from earlier work
[5] = target: T1, RT/RNaseH; test: Primer extension assay on synthetic RNA2; type: biochemical, HIV-1; design: the HIV RT/RNase H is a heterodimer of p66 and p51 with and without RNase H; settings: synthetic RNA2, FIG. 2B
Source text: To test whether an ODN-mediated activity would preferentially occur at the PPT, we analysed ODNs targeted to the extended PPT (ODN A) or to a region outside of the PPT (ODN CO and an external antisense oligodeoxynucleotide asEXT) in vitro. We used RNA2, which contains the PPT and the binding sites for ODN A, asEXT and ODN CO. […] Indeed, in the reaction mixture containing both ODN A and asEXT primers, extension products, predominantly synthesized by the RT/RNaseH, started with ODN A and not asEXT (FIG. 2B). […] Thus, the ability of the ODN A to mediate RT/RNaseH-dependent cleavage of the viral RNA is PPT-dependent.
(A) Cleavage assay. 10 nM of in vitro transcribed 5′-labeled RNA was hybridized with 10, 100 and 1000 nM of ODN A and incubated in the presence of RT/RNaseH. The cleavage products were analyzed by denaturing PAGE as described in Materials and methods. (B). Primer extension assay. Synthetic RNA2 was hybridized with ODN A, antisense primer (asEXT) or both primers combined, and the primer extension was performed as described in Materials and Methods. Elongation products were analysed by 8 M urea/10% PAGE. (C) Cleavage assay. RNA/ODN hybrids, obtained using 10 nM of RNA2 and 10 nM of ODN A, asPPT or ODN CO were incubated with RT/RNaseH and cleavage products were analyzed by denaturing PAGE as described in Materials and methods. […]

[6] = virions pre-incubated 4 hours with 0.5 μM ODN, 0.01 MOI, 3 days post-infection

In the case of “CCCTTCCAGTCCCCCCTTTTCTTTT (chemistry not given here) [asPPT, single-stranded antisense PPT of HIV, lacks the passenger strand and the linker]”, the “HIV replication in infected cells (real-time PCR)” value (from here on “HIV replication in infected cells”) [1, 6] is reported as “low but detectable levels”, the “health of infected mice (spleen enlargement in mock-treated)” value [2] is reported as “healthy” and the “establishment of SFFV infection (PCR of blood samples)” value [2] is reported as “prevented the establishment of the SFFV-infection”.

With “TCTTTTTGGGGGGTTTGTTTGTTTTTTCTTTCATTCCCCCCTTTTTCT (chemistry not given here) [ODN M, 22-mer antisense and 22-mer second strand connected by T4, targeted to extended PPT of SFFV]” the “health of infected mice (spleen enlargement in mock-treated)” value [2] was “healthy” and the “establishment of SFFV infection (PCR of blood samples)” value [2] was “prevented the establishment of the SFFV-infection”.

In the case of “TTTTCTTTTGGGGGGTTTGGTTGGGTTTTCCCTTCCAGTCCCCCCTTTTCTTTT (phosphorothioate linkages, further chemistry not given here) [ODN A, 25 mer antisense and 25 mer passenger strand connected by T4, phosphorothioated at each end and in linker, targeted to extended PPT of HIV-1]”, the “HIV replication in infected cells” value ([1]; ODN-pre-treated virions, MOI of 1, 3 days post-infection) is reported as “only partial suppression of HIV replication”, the “binding/uptake of pre-treated virions by host cells” value ([1]; pre-incubation 4 hours, HIV RNA in infected cells 1 hour post-infection) is reported as “did not significantly interfere with binding” and the “time without sign of virus replication after infection” value ([1]; virions pre-incubated 4 h, MOI of 0.01, real-time PCR, p24, RT-PCR, syncytia) is reported as “at least 20 days”. For the same sequence, the “HIV replication in infected cells” value [1, 6] was “complete suppression of viral replication”, the “viral RNA in infected cells” value ([1]; virions pre-treated 4 h, 24 hours after infection) was “completely degraded” and the “virion uptake by cells, less efficient compared to ODN Sc-treated virions” value ([1]; virions pre-treated 4 hours, HIV RNA in infected cells 1 hour post-infection) was 14%. The “reduction of virus RNA copies / titer recovered by lavage” value [3] was “twofold”, the “reduction of virus RNA copies / titer recovered by lavage” value ([3]; listed as ODNA A) was “factor of two” and the virus reduction ([3]; 10^4 IU FUGW-virus) was 2 fold. The “concentration at which ODN inhibits the RT/RNaseH activity in vitro” value [4] was no less than 1 µM and the “primer extension by RT/RNaseH compared to asEXT” value [5] was “more efficiently”.
